Experimental data: PMC8462099 (Molecular cell, 2021)
pIC50: −log10 of the molar value.

What was measured:
AMPKγ1 [1] = target: T1, AMPKγ1 (Homo sapiens, UniProt P54619); experiment: [3H]AMP binding to GST fusion protein
AMPKγ1 [2] = target: T1, AMPKγ1; experiment: [3H]inositol saturation binding

T1 sequence (P54619 whole entry, the tested form may be a part): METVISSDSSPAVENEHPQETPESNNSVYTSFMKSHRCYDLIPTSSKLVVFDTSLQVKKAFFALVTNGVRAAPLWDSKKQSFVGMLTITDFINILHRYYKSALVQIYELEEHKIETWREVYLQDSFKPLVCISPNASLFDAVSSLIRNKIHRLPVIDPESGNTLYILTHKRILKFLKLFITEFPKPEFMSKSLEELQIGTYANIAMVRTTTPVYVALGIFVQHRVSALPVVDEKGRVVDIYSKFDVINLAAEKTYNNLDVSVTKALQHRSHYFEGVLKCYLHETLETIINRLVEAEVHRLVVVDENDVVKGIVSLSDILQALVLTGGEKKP

| SMILES | pIC50 (AMPKγ1 [1]) | Kd (AMPKγ1 [2]) |
| --- | --- | --- |
| Nc1ncnc2c1ncn2[C@@H]1O[C@H](COP(=O)(O)O)[C@@H](O)[C@H]1O [AMP] | 5.72 |  |
| O[C@H]1[C@H](O)[C@@H](O)[C@H](O)[C@@H](O)[C@H]1O [Ins, inositol] |  | 98.2 pmol |
